Data published in US20250144067A1, “PERSONALIZED STARVATION THERAPY FOR CANCER” (Faeth Therapeutics, Inc., priority 2021, published 2025).

What was measured:
[1] = system: NCI-H292 lung cancer cells; assay: FDA drug screening, complete media vs cholesterol-free media with simvastatin (TABLE 2); type: cell-based, human; conditions: for Cholesterol-free media + simvastatin (0.04 μM) / Complete Media: NCI-H292 cells
[2] = system: NCI-H292 lung cancer cells; assay: FDA drug screening, complete media vs cholesterol-free media without statin (TABLE 1); type: cell-based, human; conditions: for Difference: Complete minus Cholesterol-free
[3] = FDA drug library screen, cholesterol-free media with simvastatin 0.04 μM
[4] = FDA drug library screen, complete media
[5] = complete media vs cholesterol-free media + simvastatin (0.04 μM), >0 enhanced anti-cancer activity, about 0 neutral, <0 antagonist
[6] = >0 enhanced anti-cancer activity, about 0 neutral, <0 antagonist
[7] = drug in cholesterol-free media with simvastatin 0.04 μM
[8] = greater than 0 enhanced anti-cancer activity, about 0 neutral, below 0 antagonists
[9] = NCI-H292 cells in cholesterol-free media without statin
[10] = NCI-H292 cells in complete media
[11] = cholesterol-free media with simvastatin 0.04 μM, cell growth value in FDA drug screen
[12] = complete media, cell growth value in FDA drug screen
[13] = complete media minus cholesterol-free media + simvastatin, >0 enhanced anti-cancer activity, about 0 neutral, <0 antagonist
[14] = NCI-H292 cells, cholesterol-free media without statin
[15] = greater than 0 enhanced anti-cancer activity, about 0 neutral, below 0 antagonist
[16] = NCI-H292 cells, FDA drug library screen, cholesterol-free media without statin
[17] = NCI-H292 cells, FDA drug library screen, complete media
[18] = complete media minus cholesterol-free media + simvastatin (0.04 μM), >0 enhanced anti-cancer activity, about 0 neutral, <0 antagonist
[19] = cholesterol-free media with simvastatin 0.04 μM, FDA drug library screen (TABLE 2)
[20] = complete media, FDA drug library screen (TABLE 2)

## C[C@H]1C[C@@H]2[C@H]([C@@H](O)C[C@@]3(C)[C@H]2CC[C@]3(O)C(=O)COC(=O)CCC(=O)[O-])[C@@]2(C)C=CC(=O)C=C12.[Na+]
[1]; [3]
  Cholesterol-free media + simvastatin (0.04 μM): 0.7536
[1]; [4]
  Complete Media: 0.682
[1]; [5]
  Difference: −0.07
[2]; [6]
  Difference: 0.02
[2]; NCI-H292 cells, cholesterol-free media without statin, FDA drug library screen
  Cholesterol-free: 0.6071
[2]; NCI-H292 cells, complete media, FDA drug library screen
  Complete: 0.6313

## COc1cc(O)c(C(=O)Nc2nc(C(=O)NCCN(C(C)C)C(C)C)cs2)cc1OC
[1]; [7]
  Cholesterol-free media + simvastatin (0.04 μM): 1.16
[1]; drug in complete media
  Complete Media: 0.9105
[1]; [5]
  Difference: −0.25
[2]; [8]
  Difference: −0.47
[2]; [9]
  Cholesterol-free: 1.419
[2]; [10]
  Complete: 0.9453

## O=C(O)CC(O)(CC(=O)O)C(=O)O
[1]; [11]
  Cholesterol-free media + simvastatin (0.04 μM): 0.864
[1]; [12]
  Complete Media: 0.9089
[1]; [13]
  Difference: 0.04
[2]; [6]
  Difference: −0.20
[2]; [14]
  Cholesterol-free: 1.776
[2]; NCI-H292 cells, complete media
  Complete: 1.574

## CC1=C(C(=O)OCCN(Cc2ccccc2)c2ccccc2)C(c2cccc([N+](=O)[O-])c2)C(P2(=O)OCC(C)(C)CO2)=C(C)N1.CCO.Cl (centres unmarked)
[1]; [3]
  Cholesterol-free media + simvastatin (0.04 μM): 1.113
[1]; [4]
  Complete Media: 1.012
[1]; [5]
  Difference: −0.10
[2]; [15]
  Difference: −0.15
[2]; [16]
  Cholesterol-free: 0.9837
[2]; [17]
  Complete: 0.8325

## O=C(O)CN(CCN(CC(=O)O)CC(=O)O)CC(=O)O
[1]; [11]
  Cholesterol-free media + simvastatin (0.04 μM): 0.8557
[1]; [12]
  Complete Media: 0.9311
[1]; [13]
  Difference: 0.08
[2]; [6]
  Difference: −0.27
[2]; [14]
  Cholesterol-free: 1.665
[2]; NCI-H292 cells, complete media
  Complete: 1.397

## Cc1cc2nc3c(=O)[nH]c(=O)nc-3n(C[C@H](O)[C@H](O)[C@H](O)COP(=O)(O)OP(=O)(O)OC[C@H]3O[C@@H](n4cnc5c(N)ncnc54)[C@H](O)[C@@H]3O)c2cc1C
[1]; [7]
  Cholesterol-free media + simvastatin (0.04 μM): 1.111
[1]; drug in complete media
  Complete Media: 0.8891
[1]; [5]
  Difference: −0.22
[2]; [15]
  Difference: −0.12
[2]; [16]
  Cholesterol-free: 0.9242
[2]; [17]
  Complete: 0.8033

## Cc1cn(-c2cc(NC(=O)c3ccc(C)c(Nc4nccc(-c5cccnc5)n4)c3)cc(C(F)(F)F)c2)cn1
[1]; [3]
  Cholesterol-free media + simvastatin (0.04 μM): 0.854
[1]; [4]
  Complete Media: 0.7821
[1]; [5]
  Difference: −0.07
[2]; [8]
  Difference: −0.54
[2]; [9]
  Cholesterol-free: 1.23
[2]; [10]
  Complete: 0.6857

## C[S+](CC[C@H](N)C(=O)[O-])C[C@H]1O[C@@H](n2cnc3c(N)ncnc32)[C@H](O)[C@@H]1O.Cc1ccc(S(=O)(=O)O)cc1.O=S(=O)(O)O.O=S(=O)(O)O (some centres unmarked)
[1]; [3]
  Cholesterol-free media + simvastatin (0.04 μM): 1.19
[1]; [4]
  Complete Media: 1.075
[1]; [5]
  Difference: −0.12
[2]; [15]
  Difference: −0.11
[2]; [16]
  Cholesterol-free: 1.112
[2]; [17]
  Complete: 1.004

## CC(C)Cc1ccc([C@@H](C)C(=O)O)cc1 [(R)-(—)-Ibuprofen]
[2]; [8]
  Difference: −0.96
[2]; [9]
  Cholesterol-free: 1.742
[2]; [10]
  Complete: 0.7774

## CC(C)Cc1ccc([C@@H](C)C(=O)O)cc1 [(R)-(−)-Ibuprofen]
[1]; [18]
  Difference: 0.01

## NS(=O)(=O)c1cc(C(=O)O)c(NCc2ccco2)cc1Cl [Furosemide (sodium)]
[1]; [19]
  Cholesterol-free media + simvastatin (0.04 μM): 1.074
[1]; [20]
  Complete Media: 1.02
[1]; [18]
  Difference: −0.05

## NS(=O)(=O)c1cc(C(=O)O)c(NCc2ccco2)cc1Cl [Furosemide]
[1]; [7]
  Cholesterol-free media + simvastatin (0.04 μM): 1.11
[1]; drug in complete media
  Complete Media: 0.894
[1]; [5]
  Difference: −0.22

## CCN(CC)C(=O)C1(c2ccccc2)CC1CN.Cl (stereo not drawn) [Milnacipran ((1S-cis) hydrochloride)]
[1]; [3]
  Cholesterol-free media + simvastatin (0.04 μM): 0.9487
[1]; [4]
  Complete Media: 0.8731
[1]; complete media vs cholesterol-free media + simvastatin (0.04 μM), […]
  Difference: −0.08

## CCN(CC)C(=O)C1(c2ccccc2)CC1CN.Cl (stereo not drawn) [Milnacipran ((1S-cis)hydrochloride)]
[2]; […]
  Difference: −0.18
[2]; [16]
  Cholesterol-free: 1.07
[2]; [17]
  Complete: 0.894

## Dihydroergotoxine (mesylate)
[1]; [19]
  Cholesterol-free media + simvastatin (0.04 μM): 0.9089
[1]; [20]
  Complete Media: 0.9065
[1]; complete media minus cholesterol-free media + simvastatin (0.04 μM), […]
  Difference: 0.00

## Escin
[2]; […]
  Difference: −0.22
[2]; [14]
  Cholesterol-free: 1.276

## γ-Oryzanol
[1]; [4]
  Complete Media: 1.39
[1]; complete media minus cholesterol-free media + simvastatin, […]
  Difference: 0.24
